Results reported in the supplement of paper PMC10883282.
Counter-ions that a name gives are not always drawn. ± gives the standard deviation of the averaged measurements.

Test system: SYO-1
Test: relative viability vs DMSO control (72 h) (fraction); higher = more viable cells
Procedure, shortened: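 After seeding at densities set for 80–90% confluence in 384-well plates, sarcoma cell lines waited 24 h before 2.5 µl of serially diluted compound was added. Source plates held 10 mM down to 0.0002 mM. Plates were incubated 72 h at 37 °C with 5% CO2, with 0.1% DMSO vehicle and a 5 µM positive control, and relative viability was taken from ATPLite as percent growth averaged over up to triplicate wells, with 1 set as full and 0 as none.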

Compound	relative viability (0.00017 µM)	relative viability (0.00051 µM)	relative viability (0.00152 µM)	relative viability (0.00457 µM)	relative viability (0.01372 µM)	relative viability (0.04115 µM)	relative viability (0.1235 µM)	relative viability (0.3704 µM)	relative viability (1.111 µM)	relative viability (3.333 µM)	relative viability (10 µM)	relative viability (2 pM)	relative viability (5 pM)	relative viability (15 pM)	relative viability (50 pM)	relative viability (0.00014 µM)	relative viability (0.00041 µM)	relative viability (0.0012 µM)	relative viability (0.0037 µM)	relative viability (0.011 µM)	relative viability (200 fM)	relative viability (600 fM)
CCCS(=O)(=O)Nc1ccc(F)c(C(=O)c2c[nH]c3ncc(-c4ccc(Cl)cc4)cc23)c1F [Vemurafenib]	0.954 ± 0.056	0.955 ± 0.048	0.963 ± 0.04	0.966 ± 0.061	0.975 ± 0.051	0.967 ± 0.043	0.974 ± 0.024	1 ± 0.027	0.986 ± 0.042	0.95 ± 0.076	0.608 ± 0.072	–	–	–	–	–	–	–	–	–	–	–
COCc1c(-c2cc3cc(C)cc(OC)c3s2)c2c(N)ncnn2c1CN1CCNC(=O)C1 [Rogaratinib]	1.01 ± 0.048	0.974 ± 0.054	0.952 ± 0.059	0.924 ± 0.067	0.84 ± 0.059	0.765 ± 0.082	0.634 ± 0.05	0.613 ± 0.071	0.6 ± 0.057	0.568 ± 0.056	0.464 ± 0.06	–	–	–	–	–	–	–	–	–	–	–
C=CC(=O)N1CCC([C@@H]2CCNc3c(C(N)=O)c(-c4ccc(Oc5ccccc5)cc4)nn32)CC1 [Zanubrutinib]	0.982 ± 0.032	0.978 ± 0.025	0.976 ± 0.018	0.979 ± 0.018	0.984 ± 0.015	0.9556 ± 0.0067	0.967 ± 0.018	0.959 ± 0.06	0.97 ± 0.061	0.884 ± 0.076	0.763 ± 0.053	–	–	–	–	–	–	–	–	–	–	–
COc1cccc2c1C(=O)c1c(O)c3c(c(O)c1C2=O)C[C@@](O)(C(=O)CO)C[C@@H]3O[C@H]1C[C@H](N)[C@H](O)[C@H](C)O1 [Doxorubicin Hydrochloride]	0.967 ± 0.064	0.938 ± 0.048	0.899 ± 0.054	0.818 ± 0.06	0.549 ± 0.038	0.29 ± 0.025	0.175 ± 0.035	0.127 ± 0.015	0.0941 ± 0.01	0.0937 ± 0.025	0.0765 ± 0.011	–	–	–	–	–	–	–	–	–	–	–
CC(C)NC(=O)C1CCC(n2c(NC(=O)c3ccc(F)cc3)nc3ccc(CN4CCC(C(C)(C)O)CC4)cc32)CC1 (stereo not drawn) [Belizatinib]	0.993 ± 0.062	0.983 ± 0.019	0.983 ± 0.055	1 ± 0.069	0.96 ± 0.03	0.967 ± 0.044	0.902 ± 0.052	0.798 ± 0.046	0.639 ± 0.046	0.336 ± 0.018	0.155 ± 0.03	–	–	–	–	–	–	–	–	–	–	–
COc1cc2/c(=N/c3ccc(Br)cc3F)nc[nH]c2cc1OCC1CCN(C)CC1 [Vandetanib]	0.926 ± 0.02	0.924 ± 0.043	0.927 ± 0.028	0.899 ± 0.067	0.889 ± 0.041	0.848 ± 0.034	0.793 ± 0.011	0.65 ± 0.015	0.4003 ± 0.0022	0.0998 ± 0.016	-0.00567 ± 0.0018	–	–	–	–	–	–	–	–	–	–	–
C[C@@H]1CCN(C(=O)CC#N)C[C@@H]1N(C)c1ncnc2[nH]ccc12 [Tofacitinib]	1.01 ± 0.051	0.969 ± 0.061	0.966 ± 0.072	0.923 ± 0.024	0.887 ± 0.039	0.902 ± 0.062	0.916 ± 0.043	0.888 ± 0.02	0.891 ± 0.053	0.868 ± 0.032	0.766 ± 0.044	–	–	–	–	–	–	–	–	–	–	–
Cn1cnc2c(F)c(Nc3ccc(Br)cc3F)c(C(=O)NOCCO)cc21 [Binimetinib]	1.04 ± 0.027	1.05 ± 0.02	1.01 ± 0.064	1.01 ± 0.038	0.983 ± 0.024	0.96 ± 0.042	0.936 ± 0.038	0.933 ± 0.019	0.93 ± 0.069	0.889 ± 0.042	0.86 ± 0.059	–	–	–	–	–	–	–	–	–	–	–
Cc1nc(-c2cn3c(n2)-c2ccc(-c4cnn(C(C)(C)C(N)=O)c4)cc2OCC3)n(C(C)C)n1 [Taselisib]	0.9262 ± 0.0077	0.924 ± 0.029	0.924 ± 0.035	0.895 ± 0.051	0.864 ± 0.042	0.794 ± 0.053	0.759 ± 0.041	0.721 ± 0.046	0.684 ± 0.046	0.61 ± 0.034	0.476 ± 0.033	–	–	–	–	–	–	–	–	–	–	–
Nc1cc(C(F)(F)F)c(-c2cc(N3CCOCC3)nc(N3CCOCC3)n2)cn1 [Buparlisib]	0.933 ± 0.025	0.939 ± 0.011	0.935 ± 0.028	0.931 ± 0.022	0.894 ± 0.043	0.878 ± 0.066	0.81 ± 0.075	0.739 ± 0.052	0.456 ± 0.0064	0.159 ± 0.0096	0.136 ± 0.005	–	–	–	–	–	–	–	–	–	–	–
Cc1cnc(Nc2ccc(OCCN3CCCC3)cc2)nc1Nc1cccc(S(=O)(=O)NC(C)(C)C)c1 [Fedratinib]	0.982 ± 0.04	0.943 ± 0.078	0.941 ± 0.09	0.933 ± 0.037	0.898 ± 0.053	0.843 ± 0.027	0.748 ± 0.066	0.496 ± 0.052	0.132 ± 0.0092	-0.0159 ± 0.0034	-0.0172 ± 0.0037	–	–	–	–	–	–	–	–	–	–	–
COc1cc2c(Oc3ccc4[nH]c(C)cc4c3F)ncnc2cc1OCCCN1CCCC1 [Cediranib]	0.965 ± 0.02	0.962 ± 0.039	0.967 ± 0.04	0.946 ± 0.043	0.91 ± 0.074	0.723 ± 0.036	0.5301 ± 0.0011	0.471 ± 0.019	0.453 ± 0.019	0.483 ± 0.012	0.482 ± 0.027	–	–	–	–	–	–	–	–	–	–	–
CC(=O)Nc1cccc(-n2c(=O)n(C3CC3)c(=O)c3c(Nc4ccc(I)cc4F)n(C)c(=O)c(C)c32)c1 [Trametinib]	0.997 ± 0.025	0.983 ± 0.057	0.925 ± 0.031	0.889 ± 0.034	0.865 ± 0.027	0.832 ± 0.056	0.765 ± 0.05	0.735 ± 0.038	0.687 ± 0.061	0.687 ± 0.037	0.671 ± 0.048	–	–	–	–	–	–	–	–	–	–	–
CC(C)N1CCN(Cc2cnc(-c3cc(-c4cccc5[nH]ccc45)cc4[nH]ncc34)o2)CC1 [Nemiralisib]	1.02 ± 0.013	0.981 ± 0.046	0.981 ± 0.036	0.974 ± 0.049	0.981 ± 0.025	0.991 ± 0.02	0.9659 ± 0.0068	0.968 ± 0.017	0.882 ± 0.025	0.697 ± 0.028	-0.0515 ± 0.012	–	–	–	–	–	–	–	–	–	–	–
Cc1cc(Nc2ncnc3ccc(NC4=NC(C)(C)CO4)cc23)ccc1Oc1ccn2ncnc2c1 [Tucatinib]	1.03 ± 0.024	1.04 ± 0.026	1.02 ± 0.015	1.01 ± 0.021	0.99 ± 0.027	0.981 ± 0.038	1.01 ± 0.022	0.97 ± 0.064	0.969 ± 0.019	0.959 ± 0.027	0.841 ± 0.041	–	–	–	–	–	–	–	–	–	–	–
COc1cc2c(cc1O)CCN[C@]21CS[C@@H]2c3c(OC(C)=O)c(C)c4c(c3[C@H](COC1=O)N1[C@@H]2[C@H]2c3c(cc(C)c(OC)c3O)C[C@@H]([C@@H]1O)N2C)OCO4 [Trabectedin]	–	–	–	–	–	–	–	–	–	–	–	0.489 ± 0.027	0.422 ± 0.039	0.299 ± 0.027	0.194 ± 0.13	0.0855 ± 0.18	0.0855 ± 0.18	0.26 ± 0.031	0.315 ± 0.0091	0.312 ± 0.02	0.4804 ± 0.002	0.512 ± 0.024
C[C@@H]1COCCN1c1cc(-c2ccnn2C)c2ccnc(-c3ccn[nH]3)c2n1	0.9163 ± 0.0052	0.928 ± 0.028	0.911 ± 0.043	0.903 ± 0.06	0.799 ± 0.07	0.627 ± 0.044	0.415 ± 0.03	0.286 ± 0.018	0.199 ± 0.0027	0.116 ± 0.0028	0.0976 ± 0.0066	–	–	–	–	–	–	–	–	–	–	–
Cc1cc(C)c(/C=C2\C(=O)Nc3ccccc32)[nH]1 [Semaxanib]	0.922 ± 0.014	0.915 ± 0.01	0.917 ± 0.014	0.908 ± 0.025	0.87 ± 0.035	0.824 ± 0.056	0.774 ± 0.047	0.721 ± 0.03	0.649 ± 0.046	0.632 ± 0.041	0.579 ± 0.0071	–	–	–	–	–	–	–	–	–	–	–
